Data as given in patent publication US11291675B2, “6′-sialyllactose for use in the treatment of hearing loss” (Rheinische Friedrich-Wilhelms-Universität Bonn, priority 2017, dated 2022).
Entries after “also recorded” stand apart in the source; their conditions may differ.

Tests used:
human THP-1 macrophages = assay: Beads phagocytosis in LPS-activated THP-1 macrophages (flow cytometry); assay type: cell-based; conditions: THP-1 macrophages activated by 3 μg/ml LPS, 24 hours; 0.5 μM test substance; vs LPS alone
Protocol: The effect of 6′- and 3′-sialyllactose on beads phagocytosis was determined in the human mononuclear phagocyte cell line THP-1. The human mononuclear phagocyte cell line THP-1 was maintained in RPMI medium supplemented with 1% L-glutamine, 1% Penicillin/Streptomycin and 1% heat-inactivated chicken serum, at 5% CO2 and 37° C. For passaging, the cells were transferred to a 50 mL Falcon tube and centrifuged at 1300 rpm for 3 min. The supernatant was removed and the pellet was re-suspended in 5 mL of warm medium. For differentiation into macrophage-like cells, the cell density was adjusted to approximately 1×10^6 cells/mL. The cell suspension was mixed with 10 ng/mL PMA (Phorbol 12-myristate 13-acetate, Sigma) and distributed in volumes according to each experiment. Cells were incubated for 48 h, washed twice with medium and then cultured in medium for additional 48 h without PMA. For experimentation THP-1 macrophages were cultured in RPMI medium supplemented with 1% L-glutamine, 1% Penicillin/Streptomycin and 1% heat-inactivated chicken serum, at 5% CO2 and 37° C. […]
Beads phagocytosis was analyzed by flow cytometry (BD FACSCalibur) by quantification of the percentage of cells having ingested 2 or more beads.

[1] = tested on: sensory neurons in the spiral ganglion; assay: Sensory neuron density (NeuN+ cells) in the spiral ganglion, animal model of antibiotic-induced hearing loss; assay type: in vivo, mouse; conditions: seven consecutive days
Protocol: One-week old C57BL/6 pubs of mice were treated subcutaneously with either 50 μl PBS, 50 μl of 200 mg/kgbw neomycin (Sigma, N5285) in PBS, or 50 μl of 200 mg/kgbw neomycin (Sigma, N5285) plus 100 mg/kgbw 6′-sialyllactose (Carbosynth, OS04398) in PBS for seven consecutive days. Mice were sacrificed 2 weeks after the last injection. For further investigations cochlea of the mice were isolated, post-fixed in 4% PFA, decalcified in 5% EDTA, incubated in 30% sucrose until fully soaked, embedded in a cryoprotectant and cut into 20 μm thin slices from the apex to base of the cochlea with a cryostat. For quantification of the sensory neurons in the cochlea, cryosections from different levels of the cochlea were chosen and stained with antibodies for neuronal nuclei (NeuN) and the cellular nuclei marker DAPI. Z-stacks of 3×2 μm images were taken with a confocal microscope and stacks were afterwards combined to maximal projection images. The area of the spiral ganglion was selected and measured using ImageJ.
The NeuN-positive cells of the mice treated with neomycin (Neo), neomycin plus 6′-sialyllactose (Neo+6SL) or vehicle control (PBS) within the chosen area were counted and the neuronal density of the spiral ganglion was calculated and normalized to the PBS treated condition. […] Data were analyzed by one-way ANOVA with Bonferroni post-hoc correction (*p<0.05).

[2] = tested on: CD68+ mononuclear phagocytes in the spiral ganglion; assay: Macrophage activation (CD68+ cells) in the spiral ganglion, animal model of antibiotic-induced hearing loss; assay type: in vivo, mouse; conditions: seven consecutive days
Protocol: To determine the effect of 6′-sialyllactose on macrophage activation in the inner ear, one-week old C57BL/6 pubs of mice were treated subcutaneously with either 50 μl PBS, 50 μl of 200 mg/kgbw neomycin (Neo, Sigma, N5285) in PBS, or 50 μl of 200 mg/kgbw neomycin (Sigma, N5285) plus 100 mg/kgbw 6′-sialyllactose (Carbosynth, OS04398) in PBS or only PBS as vehicle control for seven consecutive days. Mice were sacrificed two weeks after the last injection.
For further investigations, cochleae of the mice were isolated, post-fixed in 4% paraformaldehyde (PFA), decalcified in 5% EDTA, incubated in 30% sucrose until fully soaked, embedded in a cryoprotectant and cut into 20 μm thin slices from the apex to the base of the cochlea with a cryostat. For quantification of the macrophage activation in the cochlea, cryosections from different levels of the cochlea were chosen and co-stained with antibodies against the macrophage activation marker CD68 and the cellular nuclei marker DAPI. […] The area of the spiral ganglion was selected and measured using ImageJ. The CD68-positive cells were counted within the chosen area and the cell density of the macrophage in the spiral ganglion was calculated and normalized to the PBS vehicle treated condition. Data were analyzed by one-way ANOVA with Bonferroni post-hoc correction.

[3] = tested on: hair cells of the middle turn of the cochlea; assay: Hair cell count (Myo7A+ cells) in the cochlea, animal model of antibiotic-induced hearing loss; assay type: in vivo, mouse; conditions: seven consecutive days
Protocol: One-week old BL6 pubs of mice were treated subcutaneously with either 50 μl PBS, 50 μl of 200 mg/kgbw neomycin (Sigma, N5285) in PBS, or 50 μl of 200 mg/kgbw neomycin (Sigma, N5285) plus 100 mg/kgbw 6′-sialyllactose (Carbosynth, OS04398) in PBS for seven consecutive days. Mice were sacrificed two weeks after the last injection. For further investigations cochlea of the mice were isolated, post-fixed in 4% PFA, decalcified in 5% EDTA, incubated in 30% sucrose until fully soaked, embedded in a cryoprotectant and cut into 20 μm thin slices from the apex to base of the cochlea with a cryostat. For quantification of the hair cell density in the cochlea, cryosections from different levels of the cochlea were chosen and co-stained with antibodies against the hair cell marker Myosin7A (Myo7A) and the cellular nuclei marker DAPI. Images were taken with a confocal microscope and divided into different sections from apex to base of the cochlea. Myosin7a-positive cells were counted in each section.

[4] = tested on: human iPS cell-derived sensory neurons co-cultured with human THP1-macrophages; assay: Neural branches length in co-culture of iPS cell-derived sensory neurons and THP1 macrophages; assay type: cell-based; conditions: neurons plus THP1 macrophages, 100 μM 6′-sialyllactose, 48 hours; vs co-culture without 6′-sialyllactose
Protocol: The effect of 6′-sialyllactose on sensory neural branches was determined in a human co-culture system with induced pluripotent stem cell derived sensory neurons and human THP1-macrophages.
Human sensory neurons were obtained from human induced pluripotent stem (iPS) cells. At day 0, the iPS colonies were detached by collagenase IV, collected by sedimentation, and resuspended in DMEM/F12 medium supplemented by 20% KO serum, 1% nonessential amino acids, 10 μM SB (SB-431542, inhibitor of TGF-beta), 1 μM dorsomorphin, 3 μM CHIR, and 0.5 μM purmorphamine for 2 days. […] Afterwards, the neural stem cells (NSCs) were ready for differentiation. […]
The human THP1 mononuclear phagocyte cell line was maintained in RPMI medium supplemented with 1% L-glutamine, 1% Penicillin/Streptomycin, 1% sodium-pyruvate, 1% heat-inactivated chicken serum, and 1% N2 supplement at 5% CO2 and 37° C. […] For experiments, THP-1 macrophages were scraped, counted and added to the sensory iPS cell-derived neurons in co-culture medium 1:1 ratio (N2B27 medium plus BDNF, GDNF, dbcAMP) and treated with 100 μM 6′-sialyllactose (Carbosynth), that was re-purified by a HPLC-based anion exchange chromatography before use, or vehicle control for another 48 hours. […]

[5] = mice, 200 mg/kgbw neomycin alone s.c., vs PBS

Compound	relative beads phagocytosis rate (cells having ingested 2 or more beads) (human THP-1 macrophages)	NeuN-positive cells in the spiral ganglion [1, 5]	CD68+ cells per area in the spiral ganglion [2, 5]	Myo7A-positive hair cells of the middle turn of the cochlear organ of Corti [3, 5]	NeuN-positive cells (neuronal density) in the spiral ganglion, normalized to PBS ([1]; one-week old C57BL/6 mice, 200 mg/kgbw neomycin plus 100 mg/kgbw 6′-sialyllactose s.c., vs neomycin alone)	CD68+ macrophages per area in the spiral ganglion (macrophage activation), normalized to PBS ([2]; one-week old C57BL/6 mice, 200 mg/kgbw neomycin plus 100 mg/kgbw 6′-sialyllactose s.c., sacrificed two weeks after last injection, vs neomycin alone)	Myo7A-positive hair cells of the middle turn of the cochlea per slice ([3]; one-week old BL6 mice, 200 mg/kgbw neomycin plus 100 mg/kgbw 6′-sialyllactose s.c., vs neomycin alone)	relative neural branches length [4]
CC(=O)NC1C(O)CC(OC2C(O)C(CO)OC(OC3C(CO)OC(O)C(O)C3O)C2O)(C(=O)O)OC1[C@H](O)[C@H](O)CO (stereo partly drawn) [3′-sialyllactose, reference compound]	had no effect on the LPS-induced uptake of beads; also recorded: only showed a tendency without significance							
NC[C@@H]1O[C@H](O[C@H]2[C@@H](O)[C@H](O[C@@H]3[C@@H](O)[C@H](N)C[C@H](N)[C@H]3O[C@H]3O[C@H](CN)[C@@H](O)[C@H](O)[C@H]3N)O[C@@H]2CO)[C@H](N)[C@@H](O)[C@@H]1O [neomycin, reference compound]		reduction	strongly increases the number of mononuclear phagocytes	strong reduction				
Neu5Ac-α(2→6)-Gal-β(1→4)-Glc [6′-sialyllactose]	reduced the phagocytic uptake of microsphere beads; also recorded: reduced phagocytosis of beads				less present; also recorded: might reduce the neomycin-induced loss of the sensory neurons	slight attenuation of macrophage activation; also recorded: might partially be prevented	partially rescued; also recorded: reduced the neomycin-induced loss of the hair cells	could prevent the reduction in neural branches length
